Experiments:
BEL-7404 cells = assay: Cytotoxicity assay (MTT assay); format: cell-based, human; conditions: BEL-7404, 100 μM
A549 cells = assay: Cytotoxicity assay (MTT assay); format: cell-based, human; conditions: A549, 100 μM
MGC80-3 cells = assay: Cytotoxicity assay (MTT assay); format: cell-based, human; conditions: MGC80-3, 100 μM
HeLa cells = assay: Cytotoxicity assay (MTT assay); format: cell-based, human; conditions: 100 μM
Hep-G2 cells = assay: Cytotoxicity assay (MTT assay); format: cell-based, human; conditions: Hep-G2, 100 μM
BEL-7402 cells = assay: Cytotoxicity assay (MTT assay); format: cell-based, human; conditions: BEL-7402, 100 μM
BEL-7404 xenograft = conditions: BEL-7404 model, 5-Fu 20.0 mg/kg per two days iv
Protocol: In vivo anticancer efficacy of chiral platinum(II) complex 6 was evaluated using BEL-7404 and BEL-7402 xenograft mouse models. BEL-7404 and BEL-7402 cells were injected into nude mice. The mice were randomized into the control group, complex 6-treated group, and the positive control group (n = 6/group). When the volume of tumor was about 80 mm^3, complex 6 was given at a high (8 mg/kg) and low (4 mg/kg) dosage daily for 18 days, 5-FU (20 mg/kg every two days) and Cisplatin (2 mg/kg every two days) were used as a positive control in the BEL-7404 and BEL-7402 xenograft model, respectively.
To evaluate the vivo anticancer efficacy of complex 6, BEL-7404 and BEL-7402 xenograft mouse models (BALB/c nude mice, female for BEL-7404 model, 17–20 g, 6–7 weeks old; male for BEL-7402 model, 18-21 g, 6–7 weeks old) were used. Furthermore, animal used, maximum tolerated dose (MTD) analysis, acute toxicity studies and antitumor activity toward BEL-7404 and BEL-7402 models in vivo of complex 6, was similar to Chen reported.
H21T (3.5 pmol; 5’-G [T AG ] -3’), primer TS (18 pmol; tumor tissue were cut into about 1.5 mm3 small pieces, and […]
5’-[…]-3’), KCl (63 mM), then transplanted into the right flank of nude mice. When EGTA (1 mM), MgCl (1.5 mM), Tween-20 (0.005%), the average tumors reach a volume of about 80 mm3, the […]
primer NT (7.5 pmol; 5’-[…]-3’), mice were randomized into 4 groups (n=6), received the […]
TSNT internal control (0.01 amol; 5’-[…] following treatments: (a) control, received saline solvent; […]
-3’), primer (b) complex 6 at doses of 8.0 mg/kg daily (dissolve in […]
Cxext (22.5 pmol; 5’-[…] saline, iv); (c) complex 6 at doses of 4.0 mg/kg daily; […]
[…]-3’), Taq DNA polymerase (2.5 U), and (d) in BEL-7404 model, 5-fluorouracil (5-Fu) as positive telomerase (100 ng). Complexes or/and distilled water control at 20 mg/kg per two days (dissolve in saline, iv); was added ([…]). PCR was performed in an Eppendorf in BEL-7402 model, cisplatin as positive control at 2 mg/ Master cycler equipped with a hot lid and incubated for kg per two days (dissolve in saline, iv).
30.0 min at 30 °C, followed by 92 °C 30 s, 52 °C 30 s, The tumor volumes and body weight was monitored and 72°C 30 s for 30.0 cycles. After amplification, 8.0 every 3 days, The tumor volumes were estimated by […] loading buffer (5×TBE buffer, 0.2% xylene cyanol, measuring the two dimensions of the tumors using caliper and 0.2% bromophenol blue ) were added to the reaction. and calculated by the formula 1 [1, 6, 14]:
An […] of aliquot was loaded onto a nondenaturing V = (length × width2)/2(1) acrylamide gel (19:1, 16%) in 1×TBE buffer and resolved at 200.0 V for 1.0 h. Gels were fixed and then stained with On day 18, the mice were sacrificed, and tumor AgNO3 [8–11]. tissue were dissected out and weighted, tumor growth inhibition rate calculated using formulas 2 and 3 [1, 6,
In order to verify whether complexes 4–6 can TGI (%) = (ΔVc − ΔVt)/ΔVc×100%(2) directly regulate c-myc promoter (Pu27) and the IR(%) = (Wc − Wt)/Wc×100%(3) expression of hTRET in BEL-7404 cells, consequently Where ΔVt = tumor volumefinal −tumor volumeinitial inhibiting the telomerase function, we constructed EGFP for compound treated group, ΔVc=tumor volumefinal − and c-myc gene vectors according to those illustrated tumor volumeinitial for vehicle control group; Wt and Wc in Chalfie, Chen and He previous work. The detailed mean the average tumor weight of complex-treated and procedures for the construct of gene (c-myc and EGFP vehicle controlled group respectively. genes) vectors, and the method of transfection assays REFERENCES have been reported by Chalfie, Chen and He [1, 6, 9, 12,

SMILES: C[S](C)(=O)[Pt]([Cl])([Cl])[S](C)(C)=O [cis-Pt(DMSO)2Cl2]
- Inhibitory rates (%) (BEL-7404 cells; 24 h): 5.3 ± 1.5%
- Inhibitory rates (%) (BEL-7404 cells; 48 h): 8.0 ± 0.7%
- Inhibitory rates (%) (A549 cells; 24 h): 15.1 ± 1.7%
- Inhibitory rates (%) (A549 cells; 48 h): 22.3 ± 0.5%
- Inhibitory rates (%) (MGC80-3 cells; 24 h): 10.2 ± 1.3%
- Inhibitory rates (%) (MGC80-3 cells; 48 h): 30.4 ± 0.8%
- Inhibitory rates (%) (HeLa cells; 24 h): 19.8 ± 0.7%
- Inhibitory rates (%) (HeLa cells; 48 h): 25.4 ± 1.2%
- Inhibitory rates (%) (Hep-G2 cells; 24 h): 10.1 ± 0.4%
- Inhibitory rates (%) (Hep-G2 cells; 48 h): 13.8 ± 0.7%
- Inhibitory rates (%) (BEL-7402 cells; 24 h): 8.6 ± 2.4%
- Inhibitory rates (%) (BEL-7402 cells; 48 h): 12.3 ± 0.4%

SMILES: O=c1[nH]cc(F)c(=O)[nH]1 [5-FU, 5-fluorouracil, reference compound]
- Tumor volume (start) (BEL-7404 xenograft): 75.95±25.57 mm3
- Average tumor weight (mean ± SD g) (BEL-7404 xenograft; day 18): 0.47 ± 0.20 g
- Tumor volume (end) (BEL-7404 xenograft; day 18): 576.17±297.34 mm3
